The numbers were not newly measured in article PMC11730002 (Turkish Journal of Pharmaceutical Sciences, 2025), which cites them from elsewhere.

Data set [1] has as its target T1, pancreatic lipase (Sus scrofa, UniProt P00591).
T1 sequence (P00591 1-450): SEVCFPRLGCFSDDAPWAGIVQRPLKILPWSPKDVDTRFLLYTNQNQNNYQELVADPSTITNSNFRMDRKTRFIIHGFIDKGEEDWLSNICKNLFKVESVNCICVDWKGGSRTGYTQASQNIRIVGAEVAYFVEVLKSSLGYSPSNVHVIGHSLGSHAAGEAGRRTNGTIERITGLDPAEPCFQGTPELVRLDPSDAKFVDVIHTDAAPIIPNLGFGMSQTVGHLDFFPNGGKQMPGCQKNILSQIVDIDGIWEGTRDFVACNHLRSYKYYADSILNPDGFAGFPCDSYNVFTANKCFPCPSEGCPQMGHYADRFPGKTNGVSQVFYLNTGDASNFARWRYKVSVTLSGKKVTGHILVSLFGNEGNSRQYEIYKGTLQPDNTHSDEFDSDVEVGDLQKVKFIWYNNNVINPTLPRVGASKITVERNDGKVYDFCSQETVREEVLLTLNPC
The settings on record: read-out: Pancreatic lipase inhibition IC50; in vitro study.

For data set [2], the target named is lipase. To be noted: read-out: Lipase inhibitory activity IC50.

For the molecule `O=C(/C=C/c1ccc(O)c(O)c1)O[C@H](Cc1ccc(O)c(O)c1)C(=O)O` [Rosmarinic acid], the results for the IC50 in data set [1] and in data set [2] were 347 µM and 62.8 ± 2.7 µM, respectively.

The term IC50 denotes the concentration that gives 50% inhibition.
